Test results as given in US9724358B2, “Minocycline compounds and methods of use thereof” (Paratek Pharmaceuticals, Inc., priority 2008, dated 2017).

Experiments:
[1] = tested on: Mixed GPC/GNR; assay: Phase 2 CSSSI study, clinical outcome by organism: Mixed GPC/GNR; format: in vivo; conditions: ME population
Experimental: (§1) A randomized (1:1), controlled, evaluator-blinded Phase 2 study comparing 9-[(2,2-dimethyl-propyl amino)-methyl-minocycline (compound 1) and linezolid (Zyvox™) for the treatment of complicated skin and skin structure infections (CSSSI) was conducted. Patients with CSSSI who required initial intravenous (IV) therapy and met inclusion and exclusion criteria were enrolled at 11 centers in the US and were randomized to receive either compound 1 (100 mg Q24 h IV with 200 mg Q24 h oral step-down) or linezolid (600 mg Q12 h IV with 600 mg Q12 h oral step-down).
(§2) An infecting pathogen was defined as an isolate derived from the last positive culture taken from the site of infection under study prior to and including day 1.

[2] = tested on: Viridans Strep; assay: Phase 2 CSSSI study, clinical outcome by organism: Viridans Strep; format: in vivo, Viridans Streptococci; conditions: ME population
Experimental: as §1, §2

[3] = tested on: MSSA; assay: Phase 2 CSSSI study, clinical outcome by organism: MSSA; format: in vivo, Staphylococcus aureus
Experimental: as §1, §2

[4] = tested on: MRSA; assay: Phase 2 CSSSI study, clinical outcome by organism: MRSA; format: in vivo, Staphylococcus aureus
Experimental: as §1, §2

[5] = tested on: infecting pathogen; assay: Phase 2 CSSSI study, microbiology outcome; format: in vivo, human; conditions: ME population
Experimental: as §2
A persisting pathogen at the site of infection under study was defined as an isolate that was the same genus and species as an infecting pathogen; and was cultured at the Test-of-Cure evaluation from the site of infection under study.
A superinfecting pathogen at the site of infection under study is defined as a pathogen meeting all of the following criteria: represented a genus and species not isolated during the Enrollment evaluation, was cultured at any time from the day 3 of treatment to the test of cure evaluation, inclusive; was cultured from a patient who had at least one infecting pathogen; and was cultured from a patient who represents a “clinical failure.”
Microbiological response to treatment was determined for each infecting pathogen using the following classification: documented eradication, presumed eradication, documented persistence, presumed persistence, or unknown.
Microbiological response to treatment was determined for each subject using the following classification:
Microbiologic Success—all infecting pathogens isolated at baseline were eradicated or presumed eradicated at the test-of-cure evaluation and no superinfecting pathogen was isolated from the site of infection under study.
Microbiological Failure—persistence or presumed persistence of one or more infecting pathogens or isolation of a superinfecting pathogen from the site of infection under study.

[6] = Phase 2 CSSSI study, subject disposition (discontinuations); format: in vivo, human; conditions: ITT population
Experimental: as §1
(§3) All subjects had four structured evaluations: at Enrollment (Baseline); at End of IV Treatment; at End of Treatment; and at 10 to 17 days after last dose of treatment (test of cure (TOC) evaluation). In addition, the blinded investigator saw each subject daily while they were on IV therapy and at least every 3 days while receiving oral treatment to determine whether to continue current treatment, switch from IV to oral therapy, or discontinue treatment.

[7] = tested on: complicated skin and skin structure infections (CSSSI); assay: Phase 2 study in CSSSI, clinical outcome at test of cure; format: in vivo, human
Experimental: as §1, §3
At each of the four structured evaluations, the blinded evaluator assessed the subject, with particular attention to scoring the findings at the primary site of infection and obtaining cultures. Clinical and microbiologic outcomes were determined using these assessments. Primary evaluation criteria was safety and tolerability compared with linezolid. Secondary evaluation criteria was efficacy of compound 1 compared to linezolid, as well as pharmacokinetics of compound 1.
At each scheduled evaluation, the blinded evaluator examined the primary site of infection; for patients with multiple non-contiguous areas of infection, the blinded evaluator identified the most severely affected portion at Enrollment and designated that as the primary site of infection. The following information was recorded for each patient: maximal linear dimension of area of continuous involvement of infection; maximal linear dimension of ulceration, if present; semi-qualitative (scale of 0 to 3; none, mild, marked, severe) description of infection for the following features: erythema, edema/induration, fluctuance, necrotic tissue, purulence (including drainage), and tenderness/pain. In addition, at the Enrollment Evaluation, the following were also recorded the anatomical location of the primary site of infection; and the clinical diagnosis of the type of the infection.
Both the investigational drug, compound 1, and the comparator drug, Zyvox™ were administered intravenously and orally. Patients randomized to linezolid may have received aztreonam IV for suspected or documented gram-negative infection. Subjects were initially treated with study drug IV and then switched to oral therapy. The expected duration of IV treatment was up to 7 days; the expected total duration of treatment (IV and oral) was up to 14 days.
For IV administration, the HCl salt of compound 1 for injection was given as 100 mg in 100 ml sterile saline infused over 30 minutes q24 h. For oral administration, compound 1 100 mg capsules were taken fasting as 2 capsules with 8 oz. water q24 h. No food was to be taken for 30 to 60 minutes after dosing and no dairy products for 4 hours.
Linezolid (Zyvox™) 600 mg tablets and pre-mixed 600 mg IV infusion solution (300 ml volume) were obtained from commercial sources. Linezolid 600 mg IV was administered as a 30 minute infusion.
Efficacy analyses were performed on several populations of subjects. Subjects were analyzed for efficacy according to randomization, regardless of treatment administered.
The Intent-to-Treat (ITT) population includes all enrolled subjects who received at least one dose of study medication.
The modified Intent-to-Treat (mITT) population comprises all subjects in the ITT population who have an Infecting Pathogen isolated at prior to administration of the study compound. […]

[8] = tested on: G+ anaerobes; assay: Phase 2 CSSSI study, clinical outcome by organism: G+ anaerobes; format: in vivo, gram-positive anaerobes; conditions: ME population
Experimental: as §1, §2

[9] = tested on: Enterococcus; assay: Phase 2 CSSSI study, clinical outcome by organism: Enterococcus; format: in vivo; conditions: ME population
Experimental: as §1, §2

[10] = as determined in the trials of the Exemplification
[11] = clinical failure, no pathogen at TOC
[12] = clinical success, enrollment pathogen isolated at TOC
[13] = clinical success, no pathogen at TOC
[14] = clinically evaluable population
[15] = microbiologically evaluable population

CN(C)c1cc(CNCC(C)(C)C)c(O)c2c1C[C@H]1C[C@H]3[C@H](N(C)C)C(O)=C(C(N)=O)C(=O)[C@@]3(O)C(O)=C1C2=O [Compound 1, 9-[(2,2-dimethyl-propylamino)-methyl]-minocycline]
Clinical outcome Failure (number) [1]: 2 | Clinical outcome Success (number) [1]: 12 | Clinical outcome Failure (number) [2]: 1 | Clinical outcome Success (number) [2]: 3 | Clinical outcome Failure (number) ([3]; ME population, MSSA): 2 | Clinical outcome Success (number) ([3]; ME population, MSSA): 27 | clinical success rate against MSSA [3, 10]: 93% | Clinical outcome Failure (number) ([4]; ME population, MRSA): 0 | Clinical outcome Success (number) ([4]; ME population, MRSA): 42 | Clinical outcome Failure (number) ([4]; ME population, MRSA, listed as compound 1): none | clinical success rate against MRSA [4, 10]: 100% | Presumed Persistence (% of subjects) [5, 11]: 2.7% | Presumed Persistence (number of subjects) [5, 11]: 2 | Persistence (% of subjects) [5, 12]: 2.7% | Persistence (number of subjects) [5, 12]: 2 | Presumed Eradication (% of subjects) [5, 13]: 94.7% | Presumed Eradication (number of subjects) [5, 13]: 71 | Premature Discontinuation (% of subjects) [6]: (4.5%) | Premature Discontinuation (number of subjects) [6]: 5 | Premature Discontinuation due to Adverse Event (% of subjects) [6]: (0.9%) | Premature Discontinuation due to Adverse Event (number of subjects) [6]: 1 | Premature Discontinuation due to Treatment Failure (% of subjects) [6]: (0.9%) | Premature Discontinuation due to Treatment Failure (number of subjects) [6]: 1 | Premature Discontinuation due to Adverse Event (number of subjects) ([6]; listed as compound 1): no discontinuations | Clinical Failure (% of subjects) ([7]; ITT population): (11.7%) | Clinical Failure (number of subjects) ([7]; ITT population): 13 | Clinical Failure: Failure (% of subjects) ([7]; ITT population): (1.8%) | Clinical Failure: Failure (number of subjects) ([7]; ITT population): 2 | Clinical Failure: Nonevaluable (% of subjects) ([7]; ITT population): (9.9%) | Clinical Failure: Nonevaluable (number of subjects) ([7]; ITT population): 11 | Clinical Success (% of subjects) ([7]; ITT population): (88.3%) | Clinical Success (number of subjects) ([7]; ITT population): 98 | Clinical Success (% of subjects) ([7]; ITT population, listed as compound 1): 88.3% | Clinical Failure (% of subjects) [7, 14]: 2.0% | Clinical Failure (number of subjects) [7, 14]: 2 | Clinical Success (% of subjects) [7, 14]: 98.0% | Clinical Success (number of subjects) [7, 14]: 98 | Clinical Success (% of subjects) ([7]; clinically evaluable population, listed as compound 1): 98% | Clinical Failure (% of subjects) ([7]; mITT population): (10.7%) | Clinical Failure (number of subjects) ([7]; mITT population): 9 | Clinical Failure: Failure (% of subjects) ([7]; mITT population): (2.4%) | Clinical Failure: Failure (number of subjects) ([7]; mITT population): 2 | Clinical Failure: Nonevaluable (% of subjects) ([7]; mITT population): (8.3%) | Clinical Failure: Nonevaluable (number of subjects) ([7]; mITT population): 7 | Clinical Success (% of subjects) ([7]; mITT population): (89.3%) | Clinical Success (number of subjects) ([7]; mITT population): 75 | Clinical Failure (% of subjects) [7, 15]: 2.6% | Clinical Failure (number of subjects) [7, 15]: 2 | Clinical Success (% of subjects) [7, 15]: 97.4% | Clinical Success (number of subjects) [7, 15]: 75 | Clinical outcome Failure (number) [8]: 0 | Clinical outcome Success (number) [8]: 0 | Clinical outcome Failure (number) [9]: 1 | Clinical outcome Success (number) [9]: 1
